Bounds are passed on as bounds.

Experimental findings from patent US10800788B2, “4-(aryl)-N-(3-alkoxyfuro[2,3-b]pyrazin-2-yl)-piperazine-1-carboxamide derivative and antiproliferative effect thereof” (Dongguk University Industry-Academic Cooperation Foundation, priority 2016, dated 2020) are described below.

One assay relates to HT29. The assay can be described thus: Cell growth inhibition experiment (SRB), HT29. It counts as cell-based, human. Conditions: Homo sapiens, HT-29, 96 h, 96 hours incubation, read-out: IC50 (μM) for cancer cell line HT29. Put shortly: (§1)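 Growth inhibition was assessed by sulforhodamine B staining after a 96 hour compound treatment of cells seeded at 2 to 3×10^3 per well, each compound tested three times.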

In the next assay the test system is A549. Description: Cell growth inhibition experiment (SRB), A549. The format is cell-based. The settings on record: Homo sapiens, A549, 96 h, 96 hours incubation, read-out: IC50 (μM) for cancer cell line A549. Put shortly: as §1
The subject of another assay is HUVEC. Description: Cell growth inhibition experiment (SRB), HUVEC. The format is cell-based, human. The settings on record: Homo sapiens, HUVEC, 96 h, 96 hours incubation, read-out: IC50 (μM) […]. The method in brief:
as §1

For assay [1], the system named is MDA-MB-231 (breast cancer) cell line. Description: Cell growth inhibition experiment (SRB), MDA-MB-231. It counts as cell-based, human. The settings on record: Homo sapiens, MDA-MB-231, 96 h, 96 hours incubation. The method in brief: (§2)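 Cells in DMEM with 10% FBS were seeded at 2 to 3×10^3 cells/well, dosed the next day and incubated 96 hours at 37° C, 5% CO2. After TCA fixation and sulforhodamine B staining, OD530 was converted to viable cell number with a per-line standard curve. % survival is test over control; triplicate runs.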

For assay [2], the system named is UMRC2 (kidney cancer) cell line. Description: Cell growth inhibition experiment (SRB), UMRC2. It counts as cell-based, human. The settings on record: Homo sapiens, UMRC2, 96 h, 96 hours incubation. The method in brief: as §2
For assay [3], the system named is HN31 (head and neck cancer) cell line. The assay can be described thus: Cell growth inhibition experiment (SRB), HN31. It counts as cell-based, human. The settings on record: Homo sapiens, 96 h, 96 hours incubation. Put shortly:
as §2

For assay [4], the system named is PANC-1 (pancreatic cancer) cell line. Description: Cell growth inhibition experiment (SRB), PANC-1. It counts as cell-based. The settings on record: Homo sapiens, PANC-1, 96 h, 96 hours incubation. The method in brief: as §2
A further assay relates to SK-OV-3. Description: Cell growth inhibition experiment (SRB), SK-OV-3. It counts as cell-based, human. Conditions: Homo sapiens, SK-OV-3, 96 h, 96 hours incubation, read-out: IC50 (μM) for cancer cell line SK-OV-3. Put shortly: as §1
The test system of the next assay is HEK293. The assay can be described thus: Cell growth inhibition experiment (SRB), HEK293. The format is cell-based, human. The settings on record: Homo sapiens, HEK293, 96 h, 96 hours incubation, read-out: IC50 (μM) for cancer cell line HEK293. Put shortly:
as §1

By IC50 is commonly meant the concentration needed to halve the response being measured. As for `COc1nc2oc(Cl)cc2nc1NC(=O)N1CCN(c2cc(C)cc(C)c2)CC1` [Example 45, N-(6-Chloro-3-methoxyfuro[2,3-b]pyrazin-2-yl)-4-(3,5-dimethylphenyl)piperazine-1-carboxamide], the IC50 in the assay on HT29 was below 2.5 µM; in the assay with A549, 1.81 µM; in the assay on HUVEC, below 2.5 µM; in assay [1], 0.69 µM; in [2], 0.32 µM; in assay [3], 1.68 µM. The IC50 in assay [4] is 0.68 µM; in the assay with SK-OV-3 it was below 2.5 µM; in the assay on HEK293 it was 2.01 µM.

Turning to `COc1cc(OCCN(C)C)cc(N2CCN(C(=O)Nc3nc4ccoc4nc3OC)CC2)c1` [Example 4, 4-(3-(2-(Dimethylamino)ethoxy)-5-methoxyphenyl)-N-(3-methoxyfuro[2,3-b]pyrazin-2-yl)piperazine-1-carboxamide], the IC50 in the assay on HT29 was below 2.5 µM; with A549 it was below 2.5 µM; with HUVEC, 1.25 µM; in [1] it was 1.13 µM; in assay [2] it was 0.54 µM; in assay [3] it was 1.54 µM. For the same compound, the IC50 in [4] was 0.68 µM; with SK-OV-3 it was below 2.5 µM; in the assay on HEK293 it was below 2.5 µM.

Take `CCOc1nc2oc(C)cc2nc1NC(=O)N1CCN(c2cc(C)cc(F)c2)CC1` [Example 36, N-(3-Ethoxy-6-methylfuro[2,3-b]pyrazin-2-yl)-4-(3-fluoro-5-methylphenyl)piperazine-1-carboxamide]: the IC50 in the assay on HT29 is 1.12 µM; with A549 it was 1.32 µM; in the assay with HUVEC it was 1.12 µM; in [1], 0.45 µM; in assay [2], 0.36 µM; in [3], 0.36 µM. The IC50 in assay [4] worked out at 0.12 µM; with SK-OV-3 it was 1.12 µM; in the assay on HEK293 it was 1.32 µM.

As to `CCOc1nc2occc2nc1NC(=O)N1CCN(c2cc(OC)cc(OCCN(C)C)c2)CC1` [Example 14, 4-(3-(2-(Dimethylamino)ethoxy)-5-methoxyphenyl)-N-(3-ethoxyfuro[2,3-b]pyrazin-2-yl)piperazine-1-carboxamide], the IC50 with HT29 was below 2.5 µM; in the assay on A549, 1.85 µM; with HUVEC, below 2.5 µM; in assay [1], 0.34 µM; in assay [2], 0.68 µM; in assay [3], 0.65 µM. The IC50 in assay [4] was 1.23 µM; with SK-OV-3 it was below 2.5 µM; in the assay with HEK293, below 2.5 µM.

With `COc1cc(OC)cc(N2CCN(C(=O)Nc3nc4cc(Cl)oc4nc3OC)CC2)c1` [Example 41, N-(6-Chloro-3-methoxyfuro[2,3-b]pyrazin-2-yl)-4-(3,5-dimethoxyphenyl)piperazine-1-carboxamide], the IC50 came to 1.87 µM with HT29; 1.87 µM with A549; 1.73 µM in the assay with HUVEC; 0.51 µM in assay [1]; 0.32 µM in [2]; 0.68 µM in assay [3]. In addition, the IC50 in assay [4] is 0.36 µM; in the assay on SK-OV-3, below 2.5 µM; in the assay with HEK293, 1.66 µM.

`COc1nc2oc(C)cc2nc1NC(=O)N1CCN(c2cc(C(F)(F)F)cc(C(F)(F)F)c2)CC1` [Example 29, 4-(3,5-Bis(trifluoromethyl)phenyl)-N-(3-methoxy-6-methylfuro[2,3-b]pyrazin-2-yl)piperazine-1-carboxamide]: the IC50 (in the assay with HT29; in the assay with A549; in the assay on HUVEC; in [1]; in assay [2]; in [3]) was below 2.5 µM throughout. For the same compound, the IC50 (in [4]; in the assay with SK-OV-3; in the assay with HEK293) was below 2.5 µM throughout.

Regarding `CCOc1nc2occc2nc1NC(=O)N1CCN(c2cc(F)cc(C(F)(F)F)c2)CC1` [Example 18, N-(3-Ethoxyfuro[2,3-b]pyrazin-2-yl)-4-(3-fluoro-5-(trifluoromethyl)phenyl)piperazine-1-carboxamide], the IC50 in the assay on HT29 was below 2.5 µM; in the assay on A549, below 2.5 µM; in the assay on HUVEC it was below 2.5 µM; in [1], 0.44 µM; in [2], 0.24 µM; in assay [3] it was below 2.5 µM. The IC50 (in assay [4]; in the assay with SK-OV-3; with HEK293) was below 2.5 µM in each case.

On to `COc1cc(OC)cc(N2CCN(C(=O)Nc3nc4cc(C)oc4nc3OC)CC2)c1` [Example 21, 4-(3,5-Dimethoxyphenyl)-N-(3-methoxy-6-methylfuro[2,3-b]pyrazin-2-yl)piperazine-1-carboxamide], for which the IC50 was 1.85 µM in the assay on HT29; 1.63 µM with A549; below 2.5 µM with HUVEC; 0.44 µM in [1]; 1.74 µM in assay [2]; below 2.5 µM in assay [3]. Besides, the IC50 is 2.12 µM in [4], 1.85 µM in the assay with SK-OV-3 and 1.25 µM in the assay on HEK293.
